According to patent publication US6900193B1, “Structural modification of 19-norprogesterone I: 17-α-substituted-11-β-substituted-4-aryl and 21-substituted 19-norpregnadienedione as new antiprogestational agents” (The United States of America as represented by the …, priority 1996, dated 2005):

Legend:
[1] = test system: progesterone-induced endometrial proliferation; experiment: AntiClauberg test; assay type: in vivo, rabbit; design: key to ANTIPROGESTATIONAL Anti-Clauberg: relative oral potency vs. reference compound set to 100; conditions: oral; for antiClauberg / oral antiprogestational activity, in words: versus the standard 69B; for BIOLOGICAL ACTIVITY antiClauberg: Table 2
Protocol: AntiClauberg Test (Clauberg, C., Zentr. Gynakol., 54:2757-2770 (1930)) Immature female rabbits of the New Zealand White breed (approx. 1 kg body weight) were maintained under standard laboratory conditions and received a subcutaneous injection of 5 μg estradiol in 10% ethanol/sesame oil daily for 6 consecutive days. Twenty-four hours after the last dose of estradiol (day 7) animals received progesterone by subcutaneous injection (0.8 mg/day) and the experimental compound in appropriate vehicle (usually 10% ethanol/sesame oil) orally or subcutaneously for five consecutive days. One group of rabbits received progesterone only. Twenty-four hours after the last dose all animals were sacrificed for removal of the uterus which was cleaned of all fat and connective tissue, weighed to the nearest 0.2 mg and placed in 10% neutral buffered formalin for subsequent histological processing. Five micron sections stained with hematoxylin and eosin (H&E) were evaluated microscopically for the degree of endometrial glandular proliferation according to the method of McPhail (McPhail, supra). The percent inhibition of endometrial proliferation at each dose level of the experimental compound was derived by comparison with the progesterone-stimulated animals alone.

[2] = biological target: T1, progesterone receptor (estrogen-primed rabbit uterus) (Oryctolagus cuniculus, UniProt P06186); experiment: Relative binding affinity, progesterone receptor; conditions: for BINDING AFFINITY Progester: Table 2; for binding affinities compared with the standard, compound 69B: progesterone receptor implied (rabbit or human isoform A not specified)
T1 construct: preparation of cytosols for the progesterone and glucocorticoid receptor assays; from tissue; host or cells: uterus of estradiol-primed immature female New Zealand White rabbits (cytosol)
T1 sequence (P06186 1-930): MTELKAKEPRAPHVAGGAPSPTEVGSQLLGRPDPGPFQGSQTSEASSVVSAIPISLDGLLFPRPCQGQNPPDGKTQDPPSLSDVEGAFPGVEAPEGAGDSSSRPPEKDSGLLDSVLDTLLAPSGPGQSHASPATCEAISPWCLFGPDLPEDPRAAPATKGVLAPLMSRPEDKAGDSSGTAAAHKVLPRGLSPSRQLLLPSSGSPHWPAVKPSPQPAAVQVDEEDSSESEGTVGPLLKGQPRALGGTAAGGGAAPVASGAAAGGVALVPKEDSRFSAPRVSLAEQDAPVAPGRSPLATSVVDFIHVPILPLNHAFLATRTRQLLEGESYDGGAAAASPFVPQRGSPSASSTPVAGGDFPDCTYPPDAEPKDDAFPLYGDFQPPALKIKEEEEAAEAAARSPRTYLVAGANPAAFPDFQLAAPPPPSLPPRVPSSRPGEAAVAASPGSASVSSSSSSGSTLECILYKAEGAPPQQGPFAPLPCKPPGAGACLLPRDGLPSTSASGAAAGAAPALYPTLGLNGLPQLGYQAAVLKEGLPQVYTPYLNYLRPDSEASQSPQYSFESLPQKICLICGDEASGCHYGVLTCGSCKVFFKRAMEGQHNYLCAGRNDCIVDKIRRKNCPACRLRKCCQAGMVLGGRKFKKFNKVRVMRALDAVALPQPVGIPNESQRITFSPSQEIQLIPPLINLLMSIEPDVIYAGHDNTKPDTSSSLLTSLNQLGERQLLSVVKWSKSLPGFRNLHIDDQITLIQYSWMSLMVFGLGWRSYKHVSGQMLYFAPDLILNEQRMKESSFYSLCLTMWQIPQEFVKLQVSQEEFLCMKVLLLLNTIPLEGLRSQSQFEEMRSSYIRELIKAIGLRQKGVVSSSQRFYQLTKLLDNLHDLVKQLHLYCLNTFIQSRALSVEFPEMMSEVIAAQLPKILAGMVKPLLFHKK
Protocol: (§1) Relative Binding Affinities for the Progesterone and Glucocorticoid Receptors
(§2) Uteri and thymus glands were obtained from estradiol-primed immature female rabbits of the New Zealand White strain for preparation of cytosols for the progesterone and glucocorticoid receptor assays, respectively. Tissues were excised and immediately placed in ice cold TEGDM buffer (10 mM Tris, pH 7.4; 1.5 mM EDTA; 10% glycerol vol/vol/; 1 mM dithiothreitol [DTT]; and 20 mM sodium molybdate). The tissues were dissected free of connective tissue and fat, weighed and minced finely. Minced tissues were homogenized in 3 volumes TEGDM/gm with four 10 second bursts of a VirTis Cyclone set at half maximum speed with a 30 second cooling period (in ice) between bursts. Homogenates were centrifuged at 109,663 g at 4° C. for 1 hour to yield the soluble cytosol fiction. Aliquots of cytosol were snap frozen and stored at −75° C.
(§3) All binding assays were carried out at 2-6° C. for 16-18 hours. The following radioactive ligands were used: [1,2-^3H(N)]-progesterone (50.0 Ci/mmole) for the progesterone receptor (PR). […] For the progesterone receptor RBA assays 0.02 ml uterine cytosol or TEDGM buffer, 0.05 ml of various concentrations of test compounds or progesterone, 0.13 ml TEGDM buffer and 0.05 ml [^3H]-progesterone were added to duplicate tubes. For the glucocorticoid receptor RBA assays 0.1 ml thymus cytosol or TEDGM buffer, 0.05 ml of various concentrations of test compounds or dexamethasone, 0.05 ml TEGDM buffer and 0.05 ml [3H]-dexamethasone were added to duplicate tubes. For the estrogen receptor RBA assays 0.05 ml uterine cytosol, 0.1 ml TEGDM buffer, 0.05 ml of various concentrations of test compounds or estradiol and 0.05 ml [^3H]-estradiol were added to duplicate tubes. The concentrations of the test compounds, progesterone, dexamethasone and estradiol ranged from 0.05 to 100 nM and the concentrations of the competitors ranged from 0.5 to 500 nM. Total binding was measured at radioligand concentrations of 3.5 nM and nonspecific binding was measured in the presence of a 200-fold excess of unlabeled progesterone (PR), dexamethasone (GR) or diethylstilbestrol (ER), respectively.
(§4) In all incubations bound and free ligand were separated using dextra-coated charcoal (DCC). A 0.1 ml aliquot of DCC (0.5% charcoal/0.05% Dextran T-70) was added to each tube. The tubes were vortexed and incubated on ice for 10 minutes. Five-tenths ml TEG buffer (without DTT or molybdate) was then added to all tubes to improve supernatant recovery following centrifugation. The charcoal was pelleted by centrifugation at 2,100 g for 15 minutes at 4° C. The supernatants containing the [^3H]-steroid receptor complexes were decanted into vials containing 4 ml Optifluor (Packard Instrument Co.), vortexed, equilibrated in a liquid scintillation counter for 30 minutes and then counted for 2 minutes. This provided the quantity of receptor bound [^3H]-steroid at each competitor concentration.

[3] = biological target: T2, glucocorticoid receptor (estrogen-primed rabbit thymus) (Oryctolagus cuniculus, UniProt P59667); experiment: Relative binding affinity, glucocorticoid receptor; conditions: estrogen-primed rabbit thymus, dexamethasone = 100%; for BINDING AFFINITY Glucocortic: Table 2
T2 construct: preparation of cytosols for the progesterone and glucocorticoid receptor assays; from tissue; host or cells: thymus of estradiol-primed immature female New Zealand White rabbits (cytosol)
T2 sequence (P59667 1-772): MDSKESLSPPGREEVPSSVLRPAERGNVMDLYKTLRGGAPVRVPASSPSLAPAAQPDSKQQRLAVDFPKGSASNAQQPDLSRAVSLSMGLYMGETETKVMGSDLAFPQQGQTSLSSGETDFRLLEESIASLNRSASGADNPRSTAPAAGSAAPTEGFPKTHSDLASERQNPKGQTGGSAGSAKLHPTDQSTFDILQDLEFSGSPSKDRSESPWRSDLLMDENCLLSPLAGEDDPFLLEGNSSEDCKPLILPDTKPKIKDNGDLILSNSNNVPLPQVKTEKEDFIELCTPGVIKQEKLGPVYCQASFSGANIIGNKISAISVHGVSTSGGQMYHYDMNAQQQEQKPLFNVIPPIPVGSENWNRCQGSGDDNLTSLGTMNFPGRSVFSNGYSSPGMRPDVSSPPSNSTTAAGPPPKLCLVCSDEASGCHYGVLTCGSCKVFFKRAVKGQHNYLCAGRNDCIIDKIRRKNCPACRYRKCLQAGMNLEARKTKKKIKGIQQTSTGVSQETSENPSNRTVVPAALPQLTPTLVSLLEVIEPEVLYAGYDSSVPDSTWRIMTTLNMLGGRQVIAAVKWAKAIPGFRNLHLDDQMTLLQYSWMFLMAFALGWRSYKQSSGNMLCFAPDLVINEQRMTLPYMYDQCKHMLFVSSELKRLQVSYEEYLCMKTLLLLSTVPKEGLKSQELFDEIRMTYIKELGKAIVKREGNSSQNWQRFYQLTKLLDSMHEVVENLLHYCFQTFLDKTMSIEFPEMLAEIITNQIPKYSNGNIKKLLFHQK
Protocol: as §1, §2, §3, §4

[4] = estrogen-primed rabbit uterus, progesterone = 100%

Molecule | BIOLOGICAL ACTIVITY antiClauberg ([1]; CDB-2914 = 100 (assigned)) | BINDING AFFINITY Progester [2, 4] [%] | BINDING AFFINITY Glucocortic [3] [%] | binding affinities compared with the standard, compound 69B [2] | also measured
CCOCC(=O)[C@@]1(OC(C)=O)CCC2C3CCC4=CC(=O)CCC4=C3C(c3ccc(N(C)C)cc3)C[C@@]21C (stereo partly drawn) [Compound 46, 17α-acetoxy-21-ethoxy-11β-[4-(N,N-dimethylamino)phenyl]-9-norpregna-4,9-diene-3,20-dione] | – | – | – | – | ANTIPROGESTATIONAL Anti-Clauberg ([1]; relative potency, CDB-2914 = 100 (assigned)): 130-210; antiClauberg / oral antiprogestational activity, in words [1]: greater activity than the standard; RELATIVE BINDING AFFINITY Progesterone [2, 4]: 83%; RELATIVE BINDING AFFINITY Glucocorticoid [3]: 46%
17α-Acetoxy-11β-[4-(N,N-diethylamino)phenyl]-21-thiocyanato-19-norpregna-4,9-diene-3,20-dione [Compound 138] | 57 | 63 | 14 | – | –
CC(=O)OC1(C(C)=O)CCC2C3CCC4=CC(=O)CCC4=C3C(c3ccc(C(C)=O)cc3)CC21C (stereo not drawn) [Compound 73, 17α-Acetoxy-11β-(4-acetylphenyl)-19-norpregna-4,9-diene-3,20-dione] | – | – | – | binding affinities greater than that observed for the standard | –
CC(=O)O[C@]1(C(=O)COC(=O)CN(C)C)CC[C@H]2[C@@H]3CCC4=CC(=O)CCC4=C3[C@@H](c3ccc(N(C)C)cc3)C[C@@]21C [Compound 133, 17α-Acetoxy-1-[4-(N,N-dimethylamino)phenyl]-21-(2′-N,N-dimethylamino)acetoxy-19-norpregna-4,9-diene-3,20-dione] | 95 | 82 | 13 | – | –
COCC(=O)C1(OC(C)=O)CCC2C3CCC4=CC(=O)CCC4=C3C(c3ccc(C(C)=O)cc3)CC21C (stereo not drawn) [Compound 123b, 17α-Acetoxy-11β-(4-acetylphenyl)-21-methoxy-19-norpregna-4,9-diene-3,20-dione] | 77 | 64 | 45 | – | –
COC(=O)OCC(=O)C1(OC(C)=O)CCC2C3CCC4=CC(=O)CCC4=C3C(c3ccc(N(C)C)cc3)CC21C (stereo not drawn) [Compound 126c, 17α-Acetoxy-21-hydroxy-11β-[4-(N,N-dimethylamino)phenyl]-19-norpregna-4,9-diene-3,20-dione-21-methyl carbonate] | 224 | 68 | 67 | – | antiClauberg / oral antiprogestational activity, in words [1]: greater activity than the standard
CC(=O)C1(OC=O)CCC2C3CCC4=CC(=O)CCC4=C3C(c3ccc(N(C)C)cc3)CC21C (stereo not drawn) [Compound 69A, 17α-formyloxy-11β-[4-(N,N-dimethylamino)phenyl]-19-norpregna-4,9-diene-3,20-dione] | 97 | 164 | 30 | binding affinities greater than that observed for the standard | –
COCC(=O)C1(OC)CCC2C3CCC4=CC(=O)CCC4=C3C(c3ccc(C(C)=O)cc3)CC21C (stereo not drawn) [Compound 113d, 17α,21-Dimethoxy-11β-(4-acetylphenyl)-19-norpregna-4,9-diene-3,20-dione] | – | – | – | binding affinities greater than that observed for the standard | –
CC(=O)O[C@]1(C(C)=O)CC[C@H]2[C@@H]3CCC4=CC(=O)CCC4=C3[C@@H](c3ccc(N4CCCC4)cc3)C[C@@]21C [Compound 70, 17α-Acetoxy-11β-[4-(N-pyrrolidino)phenyl]-19-norpregna-4,9-diene-3,20-dione] | ˜25 | 79 | – | – | –
COCC(=O)C1(OC)CCC2C3CCC4=CC(=O)CCC4=C3C(c3ccc(N4CCCC4)cc3)CC21C (stereo not shown) [Compound 113b] | – | 59 | 34 | – | –
COCC(=O)C1(O)CCC2C3CCC4=CC(=O)CCC4=C3C(c3ccc(C(C)=O)cc3)CC21C (stereo not drawn) [Compound 122b, 17α-Hydroxy-11β-(4-acetylphenyl)-21-methoxy-19-norpregna-4,9-diene-3,20-dione] | – | – | – | binding affinities greater than that observed for the standard | –
